Laboratory results: patent publication US11226337B2, “Chemoproteomic profiling of protein electrophilic and oxidative post-translational modifications” (Zenagem, LLC, priority 2017, dated 2022)

Legend:
Assay type in all cases: cell-based
AMD1 = target: T1, AMD1 (Homo sapiens, UniProt P17707); test: probe labelling of E. coli cells expressing the protein; details: probe 1 3 mM or probe 2 1 mM, 37° C., 0.5 hour
T1 construct: made in house; host or cells: E. coli (intact cells treated with probe)
Procedure: Induced overnight cultures expressing each protein were resuspended in serum-free DMEM supplemented with 10 mM Na-HEPES buffer (pH 7.5) such that the final OD600 was ˜10. The probes were added to the cells (3 and 1 mM, respectively, for 1 and 2) and incubated at 37° C. for 0.5 hour. Note that these are the same conditions used for treatment of mammalian cells. The cells were pelleted (16,000 g, 3 min, 4° C.), washed with PBS (2×1 mL), and resuspended in HEPES buffer or PBS maintaining the same initial volume. Cells were lysed by sonication, debris was pelleted, soluble protein was diluted to 0.5 mg/mL with PBS and probe-labelled proteins were conjugated to rhodamine-azide and visualized as described above in Example 2.

FTO = target: T2, FTO (Homo sapiens, UniProt Q9C0B1); test: gel-based RP-ABPP of transfected HEK293T cells; details: transfected HEK293T cells vs mock
T2 construct: Full-length genes encoding three probe 1- and one probe 2-targeted proteins were amplified from a cDNA library; expressed in transfected cells; host or cells: HEK293T
Procedure: (§1) Soluble proteomes from treated cells were diluted to 1 mg/mL. To each sample (50 μL), a freshly prepared “click” or CuAAC reagent mixture (6 μL) containing 0.1 mM tris(benzyltriazolylmethyl)amine (TBTA) (3 μL/sample, 1.7 mM in 4:1 DMSO:t-BuOH), 1 mM CuSO4 (1 μL/sample, 50 mM in H2O), 25 μM azide-rhodamine (1 μL/sample, 1.25 mM in DMSO), and freshly prepared 1 mM tris(2-carboxyethyl)phosphine (TCEP) (1 μL/sample, 50 mM in PBS or H2O) was added to conjugate the fluorophore to probe-labelled proteins. TBTA was purchased from TCI and azide-rhodamine was synthesized as previously described^64. Upon addition of the click mixture, each reaction was immediately mixed by vortexing and then allowed to react at ambient temperature for 1 hour before quenching the reactions with SDS loading buffer (4× stock, 17 μL). Proteins (˜25 μg total protein loaded per gel lane) were resolved by SDS-PAGE (10% acrylamide) and visualized by in-gel fluorescence scanning on a Hitachi FMBIO-II or BioRad ChemiDoc MP flatbed fluorescence scanner.
(§2) Full-length genes encoding three probe 1- and one probe 2-targeted proteins were amplified from a cDNA library derived from the same low-passage HEK293T cells used for proteomic profiling. The library was generated using Ribozol RNA extraction (Amresco) and iScript reverse transcription (Bio-rad) supermix reagents. The gene products were cloned into mammalian expression vectors containing N- or C-terminal FLAG affinity tags. The gene for S-adenosyl-L-methionine decarboxylase (AMD1 or AdoMetDC) was cloned into pFLAG-CMV-sport6 (N-terminal tag) at NotI and SalI restriction sites. AMD1, Secernin-3 (SCRN3) and fat mass- and obesity-associated Fe(II)- and 20G-dependent dioxygenase (FTO) were cloned into pRK5 (C-terminal tag) at SalI and NotI restriction sites. Kelch-like ECH-associated protein-1 (Keapl) (N-terminal tag), and empty plasmids of pRK5 were gifts. Full sequences of the genes were confirmed. The proteins expressed via transient transfection in HEK293T cells contain an additional 15 amino acids appended to their N-terminal methionine residue or C-terminus (MDYKD4KLKACGR (SEQ ID NO: 43) and A3G4DYKD4K (SEQ ID NO: 44), respectively). The DYKD4K (SEQ ID NO: 42) appendage in each contains the classic FLAG epitope that permits detection by western blotting or purification by affinity chromatography. Mutants of SCRN3 were generated using QuikChange site-directed mutagenesis with primers containing the desired mutations and their respective compliments. The gene for the deletion mutant of SCRN3 with the sequence MetlCys6-SCRN3 instead of Met1 Glu2Pro3Phe4Ser5Cys6-SCRN3 (SEQ ID NO: 45) was amplified from the wild-type C-terminal FLAG-tagged construct and cloned into the same vector.
(§3) HEK293T cells were grown to ˜40% confluence under standard growth conditions passaged in the appropriate media before adding the appropriate expression vector (control cells (‘mock’) received an equal amount of the appropriate empty vector) and polyethyleneimine (PEI) ‘MAX’ (MW 40,000, Polysciences Inc.) as a transfection reagent under standard transfection conditions (3:1 vector/PEI (w/w) ratio). Cells were incubated for ˜48 h before labelling in situ. Proteomes were processed for gel- and MS-based experiments as described above and in Example 2.
(§4) After scanning fluorescence, that same gel was transferred to nitrocellulose membrane in Towbin buffer, the membrane was blocked for ˜1 hour at ambient temperature with 5% nonfat dry milk (w/v) in Tris-buffered saline with Tween 20 (TBST) and incubated with primary antibodies in the same solution overnight at 4° C. The antibodies included anti-FLAG (1:2500, F1804, Sigma), anti-AdoMetDC (1:500, sc-160951, Santa Cruz Biotechnology) and anti-His6 (1:1000, ab18184, Abcam). The blots were washed (3×5 min, TBST), incubated with secondary antibodies (1:10,000, IRDye 800CW, LICOR) in milk for 1 hour at ambient temperature, washed again (3×5 min, TBST), and visualized on a LICOR Odyssey Scanner.

SCRN3 = target: T3, SCRN3 (Homo sapiens, UniProt Q0VDG4); test: gel-based RP-ABPP of transfected HEK293T cells; details: transfected HEK293T cells vs mock
T3 construct: Full-length genes encoding three probe 1- and one probe 2-targeted proteins were amplified from a cDNA library; expressed in transfected cells; host or cells: HEK293T
T3 sequence (Q0VDG4 6-424): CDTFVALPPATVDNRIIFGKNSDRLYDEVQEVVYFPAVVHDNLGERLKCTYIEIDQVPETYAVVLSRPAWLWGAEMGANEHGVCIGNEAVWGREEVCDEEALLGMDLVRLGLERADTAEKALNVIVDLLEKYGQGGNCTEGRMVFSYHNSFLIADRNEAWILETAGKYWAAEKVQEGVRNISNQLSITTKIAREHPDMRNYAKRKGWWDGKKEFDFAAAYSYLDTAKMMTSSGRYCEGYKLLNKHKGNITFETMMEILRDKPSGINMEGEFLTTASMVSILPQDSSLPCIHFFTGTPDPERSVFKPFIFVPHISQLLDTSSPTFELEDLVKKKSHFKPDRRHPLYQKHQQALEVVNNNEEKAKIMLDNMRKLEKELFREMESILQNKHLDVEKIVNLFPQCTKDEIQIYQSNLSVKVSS
Procedure: as §1, §2, §3, §4

KEAP1 = target: T4, KEAP1 (Homo sapiens, UniProt Q14145); test: gel-based RP-ABPP of transfected HEK293T cells; details: transfected HEK293T cells vs mock
T4 construct: Full-length genes encoding three probe 1- and one probe 2-targeted proteins were amplified from a cDNA library; expressed in transfected cells; host or cells: HEK293T
Procedure: as §1, §2, §3, §4

T1 sequence (P17707 68-334): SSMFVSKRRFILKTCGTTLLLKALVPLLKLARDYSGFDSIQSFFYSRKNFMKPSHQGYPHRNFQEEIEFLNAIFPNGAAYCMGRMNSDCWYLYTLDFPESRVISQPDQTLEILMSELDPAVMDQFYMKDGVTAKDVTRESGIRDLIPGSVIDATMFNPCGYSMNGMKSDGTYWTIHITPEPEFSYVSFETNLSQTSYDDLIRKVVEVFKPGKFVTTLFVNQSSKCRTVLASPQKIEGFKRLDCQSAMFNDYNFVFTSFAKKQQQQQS
T1 sequence (P17707 2-67): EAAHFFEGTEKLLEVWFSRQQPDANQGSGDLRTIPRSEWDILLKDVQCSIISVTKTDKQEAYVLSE
T4 sequence (Q14145 whole entry): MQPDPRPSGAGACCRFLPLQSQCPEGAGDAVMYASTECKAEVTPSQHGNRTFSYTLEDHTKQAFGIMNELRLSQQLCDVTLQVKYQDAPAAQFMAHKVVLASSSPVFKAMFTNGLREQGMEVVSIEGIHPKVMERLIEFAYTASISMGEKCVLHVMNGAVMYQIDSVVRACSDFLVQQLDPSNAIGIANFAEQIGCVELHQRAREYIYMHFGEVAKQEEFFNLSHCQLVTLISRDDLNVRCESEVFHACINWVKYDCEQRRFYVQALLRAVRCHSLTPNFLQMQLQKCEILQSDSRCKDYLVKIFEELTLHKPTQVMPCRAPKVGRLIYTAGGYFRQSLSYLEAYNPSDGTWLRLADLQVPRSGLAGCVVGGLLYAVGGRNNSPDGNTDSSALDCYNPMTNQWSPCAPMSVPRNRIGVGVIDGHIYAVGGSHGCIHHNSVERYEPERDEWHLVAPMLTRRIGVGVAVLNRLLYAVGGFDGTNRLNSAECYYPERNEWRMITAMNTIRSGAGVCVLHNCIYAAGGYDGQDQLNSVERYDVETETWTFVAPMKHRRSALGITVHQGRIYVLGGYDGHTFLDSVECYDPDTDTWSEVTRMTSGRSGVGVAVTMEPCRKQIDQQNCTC
T2 sequence (Q9C0B1 whole entry): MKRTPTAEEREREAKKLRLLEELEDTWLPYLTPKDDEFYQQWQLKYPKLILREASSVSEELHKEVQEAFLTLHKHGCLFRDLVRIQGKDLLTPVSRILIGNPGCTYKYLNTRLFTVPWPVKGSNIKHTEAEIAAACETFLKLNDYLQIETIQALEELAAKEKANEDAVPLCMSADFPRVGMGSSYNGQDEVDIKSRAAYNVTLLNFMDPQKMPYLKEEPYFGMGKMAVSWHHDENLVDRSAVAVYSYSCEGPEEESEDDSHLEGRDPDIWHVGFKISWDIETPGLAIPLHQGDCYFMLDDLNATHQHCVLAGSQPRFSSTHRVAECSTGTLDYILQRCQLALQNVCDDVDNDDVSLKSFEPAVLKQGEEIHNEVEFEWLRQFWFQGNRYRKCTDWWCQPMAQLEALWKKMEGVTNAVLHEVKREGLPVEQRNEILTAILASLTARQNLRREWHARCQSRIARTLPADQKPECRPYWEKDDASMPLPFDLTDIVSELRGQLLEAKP

| SMILES | probe labelling of protein expressed in E. coli (AMD1) | probe labeling of recombinant protein, in-gel fluorescence (FTO) | probe labeling of recombinant protein, in-gel fluorescence (SCRN3) | probe labeling of recombinant protein, in-gel fluorescence (KEAP1) |
| --- | --- | --- | --- | --- |
| C#CCNN.Cl [probe 1, prop-2-yn-1-ylhydrazine hydrochloride] | reacts well | selective reactivity with the aryl probe 2 over the alkyl probe 1 | reacted with both probes 1 and 2 | reacted with both probes 1 and 2 |
| C#CCCNC(=O)c1ccc(NN)cc1.Cl [probe 2, N-(but-3-yn-1-yl)-4-hydrazinylbenzamide hydrochloride] | reacts well | preferentially targeted by probe 2 | reacted with both probes 1 and 2 | reacted with both probes 1 and 2 |
